From patent publication US20190365927A1, “COMPOSITION FOR PHOTODYNAMIC THERAPY USING GENE EXPRESSING FLUORESCENT PROTEIN AND PHOTOSENSITIZER, AND PHOTODYNAMIC THERAPY METHOD USING SAME” (priority 2017, published 2019)

Legend:
[1] = test system: GFP+ A549, RFP+ A549 and YFP+ A549 cells; test: In vitro PDT of GFP+, RFP+ and YFP+ cells with photosensitizer, MTT analysis; type: cell-based, human; conditions: 1 μM, blue laser light (488 nm), FIG. 20
Method: Photo inducing death of GFP+, RFP+, and YFP+ cells via the photosensitizer was measured by MTT analysis. The specific experimental procedure is as follows.
To investigate photo inducing death of GFP+ cells, RFP+ cells, and YFP+ cells via the photosensitizer, rose bengal, hematoporphyrin (Sigma-aldrich #5518) or 5-ALA (5-Aminolevulinic acid hydrochloric, Sigma-aldrich # A3785) was diluted with RPMI medium containing 10% FBS. 1 μM concentration of rose bengal, hematoporphyrin or 5-ALA was prepared. Further, GFP+ A549 cells, RFP+ A549 cells and YFP+ A549 cells selected from the 1-4 were pre-incubated at a density of 5×10^3 cells per well on 96-well, black, and clear bottom plates. A549 cells with pcDNA 3.1 vector injected thereto were cultured as control. Then, each of the photosensitizers as produced was applied or not applied to the preincubated cells in the preincubated cells which in turn were cultured for 4 hours. After 4 hours, the cells were washed three times with PBS buffer. Irradiation or non-irradiation of blue laser light (488 nm; radiation dose rate=2 J/cm^2) or yellow laser light (570 nm; radiation dose rate=2 J/cm^2) thereto was carried out for 5 seconds. After irradiation or non-irradiation, a fresh culture medium was added to the wells. The cells were cultured again for 24 hours. MTT analysis was then performed.

[2] = test system: eGFP+ 4T1 cells; test: In vitro PDT with rose bengal and blue laser light, MTT analysis; type: cell-based
Method: The photo inducing death of GFP− and GFP+ cells after blue light irradiation was measured by MTT analysis in the presence or absence of rose bengal (RB). The specific experimental procedure is as follows.
RB was diluted with DMEM containing 10% FBS to produce RB at concentrations of 6.25, 12.5, 25, 50, and 100 μM. GFP− and GFP+ cells were pre-incubated in 96-well, black, and clear bottom plates at a density of 2×10^4 cells per well. Then cells were incubated with RB for 4 hours. The addition of a fresh culture medium without photosensitizer to the wells was performed. This was used as an untreated control. Cells were washed 3 times with PBS buffer.
In the PDT-treated group, the cell was irradiated with blue laser light (473 nm, radiation dose rate=80 mW/cm^2) for 1 to 60 seconds. The toxicity of pure RB on GFP+ and GFP− cells was measured in the dark room. After the irradiation, the fresh culture medium was added to the wells, and cells were cultured again for 24 hours. The medium was then measured by MTT assay. 150 μL of solubilizing solution and stop solution were added thereto, followed by incubation at 37° C. for 4 hours. The absorbance of the reaction solution was measured at 570 nm. Cell viability was calculated by the following equation:
(ODtreated/ODcontrol)×100%.
Each experiment was performed independently. Cell death was measured by LDH analysis.
Th cells were seeded on a 24-well plate at a density of 5×10^4 per well. After the photosensitizer treatment thereto, blue light was irradiated thereto as described above. Each culture medium was prepared. For LDH analysis, LDH Cytotoxicity Assay kit (Cayman Chemical Company, Ann Arbor, Mich., USA) was used according to the producer protocol. 100 μL of the supernatant of the cultured cells was transferred from the well to a corresponding well of the new plate, and then 100 μL of the reaction solution was added to each well. The plates were incubated for 30 minutes at room temperature while executing gentle shaking thereof with an orbital shaker. The absorbance was measured at 490 nm using a plate reader.

O=C1OC2(c3cc(I)c(O)c(I)c3Oc3c2cc(I)c(O)c3I)c2c(Cl)c(Cl)c(Cl)c(Cl)c21 [RB, rose bengal]
cell death effect, YFP+ versus GFP+ cell [1]: the cell death effect of the YFP+ cell is higher than that of GFP+ cell
selective cell death of eGFP+ versus eGFP− 4T1 cells ([2]; blue laser light (473 nm), FIG. 1B): the cells selectively died
eGFP+ cells selectively killed ([2]; exposed to 473 nm laser light after RB treatment, FIG. 2A): ~60%
cytotoxicity, eGFP+ versus eGFP− cells ([2]; extremely high concentrations of RB and extremely long exposure time, FIG. 2C): a similar level of cytotoxicity was observed between eGFP+ and eGFP− cells
cell death percentage, eGFP+ versus eGFP− cells ([2]; higher RB concentration and longer exposure time, FIG. 2C): cell death percentage of eGFP+ cells was higher than that of eGFP− cells
